For 26 molecules, Dmax and DC50 results are on record in patent US12257247B2 (Monte Rosa Therapeutics AG, priority 2023, dated 2025).

As usually defined, the Dmax is the greatest extent of degradation seen. What is called DC50 is the midpoint of the concentration-degradation curve.

The experiment addresses T1, VAV1 (Homo sapiens, UniProt P15498+Q96SW2).
T1 construct: A heterozygous VAV1 C-terminal HiBiT knock-in pool was generated at Monte Rosa Therapeutics from a clonal Jurkat cell; endogenous in cells; host or cells: Jurkat clone stably expressing LgBiT, homozygous GSPT1-G575N; heterozygous VAV1-HiBiT knock-in pool
Put plainly: VAV1 degradation activity, VAV1-HiBiT knock-in Jurkat luminescence assay (Example A, Table 1). The format is cell-based. Conditions: VAV1-HiBiT knock-in Jurkat cells, luminescence read at 6 and 24 hours; for Dmax: Jurkat. In short, it runs like this:
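Luminescence was measured at 6 and 24 h after adding compound (10 μM stock) to VAV1-HiBiT knock-in Jurkat cells, which had been pre-incubated ~16 h at 37° C. in RPMI/10% FBS containing Endurazine. EC50 values came from control-normalised responses fitted to a 3-parameter logistic model with hillslope fixed at 1.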
On the technique in general: HiBiT is a short tag that completes a luciferase, so light tracks the accessible tagged protein.

Where [1] appears, read: read-out: VAV1 DC50 (nM), class.

Read-outs that look alike come from different tables or passages of the source.

Turning to `O=C1CC[C@H](c2cccc(-c3ccc(Cn4ccccc4=O)cc3)c2Cl)C(=O)N1` [Compound 201, (R)-3-(2-chloro-4′-((2-oxopyridin-1(2H)-yl)methyl)-[1,1′-biphenyl]-3-yl)piperidine-2,6-dione], the Dmax (read-out: VAV1 Dmax %) came out at 88.7% and the Dmax (read-out: VAV1 Dmax %, class) lay in the range of 60 to 90%. In addition, the DC50 was 203 nM (read-out: VAV1 DC50) and 100 to 1000 nM under setting [1].

Consider `O=C1CC[C@@H](c2cccc(-c3ccc(Cn4ccccc4=O)cc3)c2Cl)C(=O)N1` [Compound 202, (S)-3-(2-chloro-4′-((2-oxopyridin-1(2H)-yl)methyl)-[1,1′-biphenyl]-3-yl)piperidine-2,6-dione], for which the Dmax was 94.6% (read-out: VAV1 Dmax %) and greater than 90% (read-out: VAV1 Dmax %, class). The DC50 runs as follows: (read-out: VAV1 DC50) 14.6 nM; under setting [1], no more than 100 nM.

For `O=C1CCC(c2cccc(-c3ccc(OCc4cc[nH]n4)cc3)c2Cl)C(=O)N1` (centres unmarked) [Compound 203, 3-(4′-((1H-pyrazol-3-yl)methoxy)-2-chloro-[1,1′-biphenyl]-3-yl)piperidine-2,6-dione], the greatest degradation seen (Dmax) by setting is: (read-out: VAV1 Dmax %) 94.6%; (read-out: VAV1 Dmax %, class) greater than 90%. For the same molecule, the DC50 (read-out: VAV1 DC50) was 29.3 nM and the DC50 under setting [1] was no more than 100 nM.

On to `O=C1CCC(c2cccc(-c3ccc(N4CCCOC4=O)cc3)c2Cl)C(=O)N1` (centres unmarked) [Compound 204, 3-(2-chloro-4′-(2-oxo-1,3-oxazinan-3-yl)-[1,1′-biphenyl]-3-yl)piperidine-2,6-dione], for which the Dmax (read-out: VAV1 Dmax %) is 95.8% and the Dmax (read-out: VAV1 Dmax %, class) was greater than 90%. Further, the DC50 is 12.2 nM (read-out: VAV1 DC50) and no more than 100 nM under setting [1].

As for `O=C1CCC(c2cccc(-c3ccc(N4C(=O)CCCC4=O)cc3)c2Cl)C(=O)N1` (centres unmarked) [Compound 205, 1-(2′-chloro-3′-(2,6-dioxopiperidin-3-yl)-[1,1′-biphenyl]-4-yl)piperidine-2,6-dione], the Dmax reads like this: (read-out: VAV1 Dmax %) 90.4%; (read-out: VAV1 Dmax %, class) greater than 90%. Besides, the DC50 is 16.4 nM (read-out: VAV1 DC50) and no more than 100 nM under setting [1].

Take `O=C1CCC(c2cccc(-c3ccc(CN4CCCC4=O)cc3)c2Cl)C(=O)N1` (centres unmarked) [Compound 206, 3-(2-chloro-4′-((2-oxopyrrolidin-1-yl)methyl)-[1,1′-biphenyl]-3-yl)piperidine-2,6-dione]: the Dmax by setting is: (read-out: VAV1 Dmax %) 87.5%; (read-out: VAV1 Dmax %, class) 60 to 90%. In addition, the DC50 is, setting by setting: (read-out: VAV1 DC50) 42.7 nM; under setting [1], no more than 100 nM.

In the case of `Cn1ccc(C(=O)Nc2ccc(-c3cccc(C4CCC(=O)NC4=O)c3Cl)cc2)n1` (centres unmarked) [Compound 207, N-[4-[2-chloro-3-(2,6-dioxo-3-piperidyl)phenyl]phenyl]-1-methyl-pyrazole-3-carboxamide], the Dmax reads like this: (read-out: VAV1 Dmax %) 88.7%; (read-out: VAV1 Dmax %, class) 60 to 90%. Besides, the DC50 was 34.7 nM (read-out: VAV1 DC50) and no more than 100 nM under setting [1].

Turning to `O=C1CCC(c2cccc(-c3ccc(Cc4ncccn4)cc3)c2Cl)C(=O)N1` (centres unmarked) [Compound 208], the Dmax runs as follows: (read-out: VAV1 Dmax %) 97.2%; (read-out: VAV1 Dmax %, class) greater than 90%. The DC50 runs as follows: (read-out: VAV1 DC50) 4.54 nM; under setting [1], no more than 100 nM.

`Cn1ccc(COc2ccc(-c3cccc([C@@H]4CCC(=O)NC4=O)c3Cl)cc2)n1` [Compound 209, (S)-3-(2-chloro-4′-((1-methyl-1H-pyrazol-3-yl)methoxy)-[1,1′-biphenyl]-3-yl)piperidine-2,6-dione]: the Dmax is 93.3% (read-out: VAV1 Dmax %) and greater than 90% (read-out: VAV1 Dmax %, class). Further, the DC50 is 7.35 nM (read-out: VAV1 DC50) and no more than 100 nM under setting [1].

Consider `O=C1CC[C@H](c2cccc(-c3ccc(-n4ccccc4=O)cc3)c2Cl)C(=O)N1` [Compound 210, (R)-3-(2-chloro-4′-(2-oxopyridin-1(2H)-yl)-[1,1′-biphenyl]-3-yl)piperidine-2,6-dione], for which the Dmax (read-out: VAV1 Dmax %) came to 96.9% and the Dmax (read-out: VAV1 Dmax %, class) is greater than 90%. Further, the DC50 by setting is: (read-out: VAV1 DC50) 40.9 nM; under setting [1], no more than 100 nM.

As to `O=C1CC[C@@H](c2cccc(-c3ccc(-n4ccccc4=O)cc3)c2Cl)C(=O)N1` [Compound 211, (S)-3-(2-chloro-4′-(2-oxopyridin-1(2H)-yl)-[1,1′-biphenyl]-3-yl)piperidine-2,6-dione], the Dmax is 97.9% (read-out: VAV1 Dmax %) and greater than 90% (read-out: VAV1 Dmax %, class). For the same molecule, the half-maximal degradation concentration (DC50) is 3.07 nM (read-out: VAV1 DC50) and no more than 100 nM under setting [1].

As for `O=C1CCC(c2cccc(-c3ccc(N4CCOC4=O)cc3)c2Cl)C(=O)N1` (centres unmarked) [Compound 212, 3-(2-chloro-4′-(2-oxooxazolidin-3-yl)-[1,1′-biphenyl]-3-yl)piperidine-2,6-dione], the Dmax is, setting by setting: (read-out: VAV1 Dmax %) 47.3%; (read-out: VAV1 Dmax %, class) less than 60%. The DC50 was 7990 nM (read-out: VAV1 DC50) and greater than 1000 nM under setting [1].

`Cn1ccc(COc2ccc(-c3cccc([C@H]4CCC(=O)NC4=O)c3Cl)cc2)n1` [Compound 213, (R)-3-(2-chloro-4′-((1-methyl-1H-pyrazol-3-yl)methoxy)-[1,1′-biphenyl]-3-yl)piperidine-2,6-dione]: the Dmax (read-out: VAV1 Dmax %) is 92% and the Dmax (read-out: VAV1 Dmax %, class) was greater than 90%. The DC50 runs as follows: (read-out: VAV1 DC50) 101 nM; under setting [1], 100 to 1000 nM.

Take `Cc1cccc(=O)n1-c1ccc(-c2cccc(C3CCC(=O)NC3=O)c2Cl)cc1` (centres unmarked) [Compound 214, 3-(2-chloro-4′-(6-methyl-2-oxopyridin-1(2H)-yl)-[1,1′-biphenyl]-3-yl)piperidine-2,6-dione]: the Dmax is 97.5% (read-out: VAV1 Dmax %) and greater than 90% (read-out: VAV1 Dmax %, class). Moreover, the DC50 (read-out: VAV1 DC50) was determined as 3.61 nM and the DC50 under setting [1] is no more than 100 nM.

In the case of `O=C1CCC(c2cccc(-c3ccc(Nc4ccccn4)cc3)c2Cl)C(=O)N1` (centres unmarked) [Compound 215, 3-(2-chloro-4′-(pyridin-2-ylamino)-[1,1′-biphenyl]-3-yl)piperidine-2,6-dione], the Dmax was 96.8% (read-out: VAV1 Dmax %) and greater than 90% (read-out: VAV1 Dmax %, class). For the same molecule, the DC50 by setting is: (read-out: VAV1 DC50) 14.1 nM; under setting [1], no more than 100 nM.

For `C[C@H]1COC(=O)N1c1ccc(-c2cccc(C3CCC(=O)NC3=O)c2Cl)cc1` (stereo partly drawn) [Compound 216, 3-(2-chloro-4′-((S)-4-methyl-2-oxooxazolidin-3-yl)-[1,1′-biphenyl]-3-yl)piperidine-2,6-dione], the Dmax runs as follows: (read-out: VAV1 Dmax %) 86.6%; (read-out: VAV1 Dmax %, class) 60 to 90%. The DC50 by setting is: (read-out: VAV1 DC50) 49 nM; under setting [1], no more than 100 nM.

For the molecule `C[C@@H]1COC(=O)N1c1ccc(-c2cccc(C3CCC(=O)NC3=O)c2Cl)cc1` (stereo partly drawn) [Compound 217, 3-(2-chloro-4′-((R)-4-methyl-2-oxooxazolidin-3-yl)-[1,1′-biphenyl]-3-yl)piperidine-2,6-dione], the Dmax is, setting by setting: (read-out: VAV1 Dmax %) 84.6%; (read-out: VAV1 Dmax %, class) 60 to 90%. In addition, the DC50 by setting is: (read-out: VAV1 DC50) 43 nM; under setting [1], no more than 100 nM.

For the molecule `O=C1CCC(c2cccc(-c3ccc(-n4cccc(F)c4=O)cc3)c2Cl)C(=O)N1` (centres unmarked) [Compound 218], the Dmax is, setting by setting: (read-out: VAV1 Dmax %) 96%; (read-out: VAV1 Dmax %, class) greater than 90%. Besides, the DC50 was 9.71 nM (read-out: VAV1 DC50) and no more than 100 nM under setting [1].

Take `O=C1CCC(c2cccc(-c3ccc(CN4CCOC4=O)cc3)c2Cl)C(=O)N1` (centres unmarked) [Compound 219]: the Dmax runs as follows: (read-out: VAV1 Dmax %) 81.2%; (read-out: VAV1 Dmax %, class) 60 to 90%. Moreover, the DC50 is, setting by setting: (read-out: VAV1 DC50) 105 nM; under setting [1], 100 to 1000 nM.

For the molecule `O=C1CCC(c2cccc(-c3ccc(N4CCCCS4(=O)=O)cc3)c2Cl)C(=O)N1` (centres unmarked) [Compound 220], the Dmax was 77.2% (read-out: VAV1 Dmax %) and 60 to 90% (read-out: VAV1 Dmax %, class). Besides, the DC50 is, setting by setting: (read-out: VAV1 DC50) 104 nM; under setting [1], 100 to 1000 nM.

With `O=C1CCC(c2cccc(-c3ccc(C(=O)N4CCC(F)(F)C4)cc3)c2Cl)C(=O)N1` (centres unmarked) [Compound 221, 3-(2-chloro-4′-(3,3-difluoropyrrolidine-1-carbonyl)-[1,1′-biphenyl]-3-yl)piperidine-2,6-dione], the Dmax runs as follows: (read-out: VAV1 Dmax %) 77.4%; (read-out: VAV1 Dmax %, class) 60 to 90%. The 50% degradation concentration (DC50) runs as follows: (read-out: VAV1 DC50) 211 nM; under setting [1], 100 to 1000 nM.

`O=C1CCC(c2cccc(-c3ccc(C(=O)n4cccc4)cc3)c2Cl)C(=O)N1` (centres unmarked) [Compound 222, 3-(2-chloro-4′-(1H-pyrrole-1-carbonyl)-[1,1′-biphenyl]-3-yl)piperidine-2,6-dione]: the Dmax (read-out: VAV1 Dmax %) turned out to be 91% and the Dmax (read-out: VAV1 Dmax %, class) was greater than 90%. Besides, the DC50 by setting is: (read-out: VAV1 DC50) 127 nM; under setting [1], 100 to 1000 nM.

Regarding `O=C1CCC(c2cccc(-c3ccc(C(=O)N4CCCCC4)cc3)c2Cl)C(=O)N1` (centres unmarked) [Compound 223, 3-(2-chloro-4′-(piperidine-1-carbonyl)-[1,1′-biphenyl]-3-yl)piperidine-2,6-dione], the Dmax runs as follows: (read-out: VAV1 Dmax %) 96.6%; (read-out: VAV1 Dmax %, class) greater than 90%. Besides, the DC50 by setting is: (read-out: VAV1 DC50) 10.7 nM; under setting [1], no more than 100 nM.

On to `O=C1CCC(c2cccc(-c3ccc(C(=O)Nc4ccno4)cc3)c2Cl)C(=O)N1` (centres unmarked) [Compound 224, 2′-chloro-3′-(2,6-dioxopiperidin-3-yl)-N-(isoxazol-5-yl)-[1,1′-biphenyl]-4-carboxamide], for which the Dmax by setting is: (read-out: VAV1 Dmax %) 51.5%; (read-out: VAV1 Dmax %, class) less than 60%. The DC50 (read-out: VAV1 DC50) was 7800 nM and the DC50 under setting [1] is greater than 1000 nM.

As for `Cn1cccc(-c2ccc(-c3cccc(C4CCC(=O)NC4=O)c3Cl)cc2)c1=O` (centres unmarked) [Compound 225, 3-(2-chloro-4′-(1-methyl-2-oxo-1,2-dihydropyridin-3-yl)-[1,1′-biphenyl]-3-yl)piperidine-2,6-dione], the Dmax reads like this: (read-out: VAV1 Dmax %) 93.7%; (read-out: VAV1 Dmax %, class) greater than 90%. Also, the DC50 is, setting by setting: (read-out: VAV1 DC50) 14.4 nM; under setting [1], no more than 100 nM.

For `O=C1CCC(c2cccc(-c3ccc(-n4cccc(C(F)(F)F)c4=O)cc3)c2Cl)C(=O)N1` (centres unmarked) [Compound 226, 3-(2-chloro-4′-(2-oxo-3-(trifluoromethyl)pyridin-1(2H)-yl)-[1,1′-biphenyl]-3-yl)piperidine-2,6-dione], the Dmax by setting is: (read-out: VAV1 Dmax %) 96.8%; (read-out: VAV1 Dmax %, class) greater than 90%. The DC50 is, setting by setting: (read-out: VAV1 DC50) 9.8 nM; under setting [1], no more than 100 nM.
